From PMC3975428, “Dimers of G-Protein Coupled Receptors as Versatile Storage and Response Units” (International Journal of Molecular Sciences, 2014)
Values belong to the compound of their own block, whether it stands above or below them.

Columns and labels:
NPY receptor dimers = conditions: via ADP-ribosylation of Gαi subunits; cited from earlier work
Text: The virtues of oligomerization for GPCRs are many. Oligomers would have much larger ability than monomers to anchor to the membranes, rafts and vesicles. Protein (including the receptor) removal by particulate (proteasomal and/or lysosomal) proteolysis is found to be much less for dimers compared to monomers, as is also observed for enzyme carriers. This is dramatically confirmed by elimination of NPY receptor dimers by pertussis toxin via ADP-ribosylation of Gαi subunits. Association with transducers and effectors could also be enhanced for the dimers. Chances ...

CHO-Y1 dimers = conditions: ADP-ribosylation of Gi type α subunits; cited from earlier work
Text: (§1) This could be of interest in many physiological conditions. The loss of CHO-Y1 and CHO-Y2 dimers due to neutralization of Gi type α subunits through ADP-ribosylation by pertussis toxin [16, 29] could be viewed as a constitutive equivalent of the reduction shown in Figure 4. In conditions of normal Gi utilization in CHO-Y2, the di ...

CHO-Y2 dimers = conditions: ADP-ribosylation of Gi type α subunits; cited from earlier work
Text: as §1

[1] = test system: 180 kDa heteropentamer and 90 kDa monomer-Gi α of Y2 receptor; conditions: 10 mM CHAPS, cited from earlier work
Text: The stability and affinity of agonist association with CHO-Y2 receptors could also be analyzed at the level of dimers and monomers by extraction and precipitation procedures coupled to competition binding assays (Figure 6). […] The 180 kDa labeled material is not sensitive to ...

[2] = test system: neuropeptide Y (NPY) receptor dimers; conditions: cited from earlier work
Text: The most studied and probably the most frequent complexes of eukaryotic heptahelical receptors are those with G-protein αβγ heterotrimers. With many GPCR dimers these assemblies survive solubilization by steroid detergents such as digitonin and cholate and could be detected as ~180 kDa heteropentamers by density gradient centrifugation ([15, 16]; see also Figure 1 in this study) and also can be solubilized by acylamine oxide surfactants such as lauryldimethylamine oxide (LDAO) and detected by circular dichroism spectroscopy. The frequently used zwitterionic detergents, e.g., CHAPS (3 ...

Gi/o subunits = conditions: hypothalamic vs. rabbit kidney cortex; Table 2; cited from earlier work
Text: (§2) Figure 2. Rundown of the Y2 agonist is much faster in tissues with large Gi/o content. […] The rabbit kidney cortex has a much lower expression of Gi/o subunits than the anterior hypothalamus (The Bmax for [^35S]GγS binding is more than 20-fold higher in hypothalamic tissue (ref. [24], Table 2). However, the kidney Y2 receptor is expressed at about four times the level of the hypothalamic. The above parameters in the Ca^2+/Mg^2 ...

[3] = test system: aggregated Y2 receptor material (rabbit kidney and CHO-Y2 particulates); assay: Release of aggregated Y2 receptor material (bottom of 5%–20% gradients); assay type: biochemical; conditions: 20 μM
Experimental: More than 30% of the Y2 binding in rabbit kidney postmitochondrial particulates, and more than 20% in the CHO-Y2 postnuclear particulates sediments to the bottom of 5%–20% sucrose gradients over 18 h at 218,000× gmax, corresponding to weight in excess of 1000 kDa. A large part of this material sediments at 30,000× gmax over 10 min, and could be considered as aggregated. […] This preliminary experiment points to potential of such procedures in quantitation of effector-associated receptors at the level of dimers and monomers. There also is a promise of gaining more insight on the size and significance of receptor oligomers incorporating more than two receptor monomers.
(§3) Rabbit kidney postmitochondrial particulates, rabbit piriform cortex and hypothalamic crude synaptosomes and CHO cell postnuclear particulates were prepared as described previously. After solubilization of particulates at 10 mM each of digitonin and sodium cholate in buffer A or B, the lysates were spun for 10 min at 1000× g to remove debris, and the supernatants sedimented for periods indicated in figure captions at 218,000× gmax through linear 5%–20% sucrose gradients (10 mL, made in buffer A). The gradients were divided by bottom dripping in 23 fractions of 0.45 mL. The sedimentation positions were calibrated with [^125I]-labeled bovine γ-globulin (158 kDa), human iron-saturated transferrin (75 kDa) and ovalbumin (44 kDa), and with colorized myosin (211 kDa), producing a linear relation of migration to molecular weight (R^2 > 0.99).

[4] = test system: Y2 receptor aggregates (anterior hypothalamus); assay: Y2 receptor aggregates, sedimentation after treatment, rabbit anterior hypothalamus particulates; assay type: biochemical; conditions: 20 μM, 15 min at 24 °C, 10%–30% gradient 6 h at 218,000× g
Experimental: (§4) Figure 5. […] Particulates from rabbit kidney (A) and anterior hypothalamus (B) were incubated with 20 μM GγS or 10 μM U73122 for 15 min at 24 °C, sedimented, resuspended, labeled with 50 pM [^125I]hPYY(3–36) for 15 min at 24 °C, resedimented, lysed at 10 mM each digitonin and cholate and sedimented through a 10%–30% linear sucrose gradient for 6 h at 218,000× g and 5 °C, followed by gradient fractionation and counting. TEXT PRINTED IN THE PICTURE: (A) GγS: Bottom count: 10.8% | (A) U73122: Bottom count: 25.4% | (B) GγS: Bottom count: 8.98 % | (B) U73122: Bottom count: 17.4 %
as §3, with “The sedimentation positions were calibrated with [^125I]-labeled bovine γ-globulin (158 kDa), human iron-saturated transferrin (75 kDa) and ovalbumin (44 kDa), and with colorized myosin (211 kDa), producing a linear relation of migration to molecular weight (R^2 > 0.99).” left out

[5] = test system: Y2 receptor aggregates (rabbit kidney); assay: Y2 receptor aggregates, sedimentation after treatment, rabbit kidney particulates; assay type: biochemical; conditions: 15 min at 24 °C
Experimental: as §4, §3

[6] = test system: 180 kDa heteropentamer (Y2 receptor dimer, G-protein trimer); assay: Nucleotide labeling / conversion of 180 kDa heteropentamer to 90 kDa Gi3α-receptor monomer; assay type: biochemical
Experimental: (§5) The receptors were labeled for 30 min at 25 °C in respective particulates (50 μg protein/assay), employing not more than 50 pM [^125I]-labeled agonist peptides (as stated in individual experiments). Higher molar inputs of agonist peptides would produce significant Gα activation within short exposures (e.g., [24, 53]). The basal assay buffer contained 0.2% proteinase-free bovine serum albumin, 20 mM hepes.NaOH (pH 7.4), 1 mM diisopropylfluorophosphate, 0.04% bacitracin, and 10 μg/mL each of proteinase inhibitors aprotinin, bestatin, chymostatin, leupeptin and pepstatin. Depending on experiment design, this was supplemented by 3 mM CaCl2 and 1 mM MgCl2, (buffer A) or by 1 mM Na EDTA, pH 7.4 (buffer B). The nucleotide site labeling at 200 pM [^35S]GγS was for 30 min at 28 °C after pre-activation for 30 min at 28 °C at 3 μM GDP in the basal buffer with 50 μM EDTA, 100 mM NaCl and 4 mM MgCl2, and without CaCl2 (buffer C). All subsequent operations were carried out at 0–5 °C. The assays were terminated by sedimentation for 10 min at 30,000× gmax, followed by surface wash of the pellets.
as §3, with “0.99). […]” for “0.99).”

G-protein α subunit = assay: Stability of GγS labeling; assay type: biochemical; conditions: 4 °C
Experimental: as §5

[7] = test system: Y2 receptor dimers (CHO cells); assay: Dimer content of Y2 receptors labeled by [^125I]PYY(3–36) in density gradients; assay type: binding, human receptor in CHO cells; conditions: duplicate gradients; for dimer content: labeled 30 min at 25 °C; for content of dimer: particulates from CHO cells, labeled 20 min at 27 °C
Experimental: Figure 1. Stability of agonist-labeled Y2 receptor dimers to incubation at 27 °C and to removal of divalent cations. Duplicate 5%–20% gradients (see Section 3.3) were centrifuged for 18 h at 5 °C. All results are average percentages of total counts in the corresponding gradient fractions from two gradients for each condition. The respective standard errors were in most cases below 10%, and for clarity are not shown. (A) Y2 receptor dimers in particulates from CHO cells are stable to incubation at 27 °C. The incubation of particulate suspension in the assay buffer at 27 °C was for 1 h (followed by 2 h at 0–4 °C) or 3 h, while the control suspension was incubated in ice for 3 h. […] The content of dimer, in % total gradient counts, was 66.2 ± 3.7 for 4 °C control, 63.4 ± 3.4 after preincubation for 1 h at 27 °C, and 64.3 ± 3.4 after preincubation for 3 h at 27 °C; (B) Y2 receptor dimers are not disbanded by removal of divalent cations.
as §5, with “Higher” for “The receptors were labeled for 30 min at 25 °C in respective particulates (50 μg protein/assay), employing not more than 50 pM [^125I]-labeled agonist peptides (as stated in individual experiments). Higher”
as §3

[8] = test system: Y2 receptor (hypothalamic particulates); assay: Rundown of Y2 agonist tracer, anterior hypothalamus; assay type: biochemical, rabbit; conditions: 50 pM, 60 min at 25 °C, Ca^2+/Mg^2+ buffer
Text: as §2, with “Ca^2+/Mg^2+ buffer lead to a much faster transduction with hypothalamic particulates (graph A); and a considerable (58%) rundown of the tracer peptide relative to 1 mM EDTA buffer. In the same assay, the relative rundown is only 12% with kidney particulates (graph B).” for “Ca^2+/Mg^2 ...”
as §5, with “The nucleotide site labeling at 200 pM [^35S]GγS was for 30 min at 28 °C after pre-activation for 30 min at 28 °C at 3 μM GDP in the basal buffer with 50 μM EDTA, 100 mM NaCl and 4 mM MgCl2, and without CaCl2 (buffer C). All subsequent operations were carried out at 0–5 °C. The assays were terminated by sedimentation for 10 min at 30,000× gmax, followed by surface wash of the pellets.” left out

[9] = test system: Y2 receptor (rabbit kidney cortex particulates); assay: Rundown of Y2 agonist tracer, kidney cortex; assay type: biochemical; conditions: 50 pM, 60 min at 25 °C, Ca^2+/Mg^2+ buffer
Text: as §2, with “Ca^2+/Mg^2+ buffer lead to a much faster transduction with hypothalamic particulates (graph A); and a considerable (58%) rundown of the tracer peptide relative to 1 mM EDTA buffer. In the same assay, the relative rundown is only 12% with kidney particulates (graph B).” for “Ca^2+/Mg^2 ...”
Higher molar inputs of agonist peptides would produce significant Gα activation within short exposures (e.g., [24, 53]). The basal assay buffer contained 0.2% proteinase-free bovine serum albumin, 20 mM hepes.NaOH (pH 7.4), 1 mM diisopropylfluorophosphate, 0.04% bacitracin, and 10 μg/mL each of proteinase inhibitors aprotinin, bestatin, chymostatin, leupeptin and pepstatin. Depending on experiment design, this was supplemented by 3 mM CaCl2 and 1 mM MgCl2, (buffer A) or by 1 mM Na EDTA, pH 7.4 (buffer B). […]

[10] = test system: rabbit kidney Y2 receptor; assay: PYY(3–36) binding to rabbit kidney Y2 receptor (heteropentamer and monomer forms); conditions: rabbit kidney particulates, digitonin and cholate lysis
Experimental: The receptors were labeled for 30 min at 25 °C in respective particulates (50 μg protein/assay), employing not more than 50 pM [^125I]-labeled agonist peptides (as stated in individual experiments). […] The basal assay buffer contained 0.2% proteinase-free bovine serum albumin, 20 mM hepes.NaOH (pH 7.4), 1 mM diisopropylfluorophosphate, 0.04% bacitracin, and 10 μg/mL each of proteinase inhibitors aprotinin, bestatin, chymostatin, leupeptin and pepstatin. Depending on experiment design, this was supplemented by 3 mM CaCl2 and 1 mM MgCl2, (buffer A) or by 1 mM Na EDTA, pH 7.4 (buffer B). The nucleotide site labeling at 200 pM [^35S]GγS was for 30 min at 28 °C after pre-activation for 30 min at 28 °C at 3 μM GDP in the basal buffer with 50 μM EDTA, 100 mM NaCl and 4 mM MgCl2, and without CaCl2 (buffer C). All subsequent operations were carried out at 0–5 °C. The assays were terminated by sedimentation for 10 min at 30,000× gmax, followed by surface wash of the pellets.

Compound: pertussis toxin
effect on NPY receptor dimers (NPY receptor dimers): elimination | effect on CHO-Y1 dimers (CHO-Y1 dimers): loss | effect on CHO-Y2 dimers (CHO-Y2 dimers): loss

Compound: C[C@H](CCC(=O)NCCC[N+](C)(C)CCCS(=O)(=O)[O-])[C@H]1CC[C@H]2[C@@H]3[C@H](O)C[C@@H]4C[C@H](O)CC[C@]4(C)[C@H]3C[C@H](O)[C@]12C [CHAPS, 3-[3-cholamidopropyldimethylammonio]-1-propanesulfonate]
sensitivity of 180 kDa binding ([1]; relative to 90 kDa zone): much less sensitive | effect on 90 kDa zone agonist binding [1]: completely dissociates | effect on NPY receptor dimers [2]: tend to destabilize

Compound: Nc1nc2c(ncn2C2OC(COP(=O)(O)OP(=O)(O)OP(O)(O)=[35S])C(O)C2O)c(=O)[nH]1 (centres unmarked) [[^35S]GγS, [^35S]guanosine 5′-(γ-thio)triphosphate]
Bmax for binding, hypothalamic relative to kidney tissue (Gi/o subunits): more than 20 fold

part of aggregated material released [3]: A considerable part | Bottom count [4]: 8.98% | main form yielded from Y2 receptor aggregates ([5]; particulates from rabbit tissues (kidney and anterior hypothalamus), GγS 20 μM or U73122 10 μM): mainly Gi-Y2 monomer | Bottom count ([5]; rabbit kidney, 20 μM, 10%–30% gradient 6 h at 218,000× g): 10.8% | labeling of G-protein trimer in 180 kDa heteropentamer [6]: not labeled
Compound: Nc1nc2c(ncn2[C@@H]2O[C@H](COP(=O)(O)OP(=O)(O)OP(O)(O)=S)[C@@H](O)[C@H]2O)c(=O)[nH]1 [GγS, Guanosine 5′-O-(γ-thiotriphosphate)]
form of released material [3]: largely in the form of activated monomers | conversion of 180 kDa heteropentamer ([6]; 1–5 mM Mg^2+, micromolar GDP or GγS): does convert to immunoprecipitable 90 kDa Gi3α-receptor monomer | stability of G-protein α subunit labeling (G-protein α subunit): stable at 4 °C

rundown of the tracer peptide relative to 1 mM EDTA buffer [8]: 58% | rundown of the tracer peptide relative to 1 mM EDTA buffer [9]: 12% | degradation of the receptor-bound tracer [10]: very low
Compound: [^125I]PYY(3–36): Monoiodinated HPLC-purified [^125I]human PYY(3–36), labeled Y2 agonist
dimer content ([7]; buffer A (3 mM CaCl2, 1 mM MgCl2)): 65.9 ± 4.7 % gradient counts | dimer content ([7]; buffer B (1 mM Na EDTA, divalent cations removed)): 60.8 ± 4.6 % gradient counts | content of dimer ([7]; 4 °C control (3 h in ice)): 66.2 ± 3.7 % total gradient counts | content of dimer ([7]; preincubation 1 h at 27 °C (then 2 h at 0–4 °C)): 63.4 ± 3.4 % total gradient counts | content of dimer ([7]; preincubation 3 h at 27 °C): 64.3 ± 3.4 % total gradient counts
